# Test results reported in PubChem BioAssay AID1963828 (Molecular Pharmacology Branch, DTP, NCI, 2024).
# System: 991263-137-R1-J2-PDC complex spheroid viability
# Assay: Anticancer human tumor 991263-137-R1-J2-PDC patient-derived colon adenocarcinoma cell line growth inhibition [POLQ]
# Settings: for IC50: curve of first compound; for viability, T/C: stronger effect = lower value
# Procedure, shortened: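 PDC + HUVEC + MSC complex spheroids; POLQ inhibitors ± partner drugs; top conc. at/near clinical Cmax, else 10 microM (SN-38 1 microM), half-log dilutions; 37 degrees C, 5% CO2.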
# [1] = second compound 0.0316 µM, first compound 0.0316 µM
# [2] = second compound 0.0316 µM, first compound 0.1 µM
# [3] = second compound 0.0316 µM, first compound 0.316 µM
# [4] = second compound 0.0316 µM, first compound 1 µM
# [5] = second compound 0.0316 µM, first compound 3.16 µM
# [6] = second compound 0.0316 µM, first compound 10 µM
# [7] = second compound 0.1 µM, first compound 0.0316 µM
# [8] = second compound 0.1 µM, first compound 0.1 µM
# [9] = second compound 0.1 µM, first compound 0.316 µM
# [10] = second compound 0.1 µM, first compound 1 µM
# [11] = second compound 0.1 µM, first compound 3.16 µM
# [12] = second compound 0.1 µM, first compound 10 µM
# [13] = second compound 0.316 µM, first compound 0.0316 µM
# [14] = second compound 0.316 µM, first compound 0.1 µM
# [15] = second compound 0.316 µM, first compound 0.316 µM
# [16] = second compound 0.316 µM, first compound 1 µM
# [17] = second compound 0.316 µM, first compound 3.16 µM
# [18] = second compound 0.316 µM, first compound 10 µM
# [19] = second compound 1 µM, first compound 0.0316 µM
# [20] = second compound 1 µM, first compound 0.1 µM
# [21] = second compound 1 µM, first compound 0.316 µM
# [22] = second compound 1 µM, first compound 1 µM
# [23] = second compound 1 µM, first compound 3.16 µM
# [24] = second compound 1 µM, first compound 10 µM
# [25] = second compound 3.16 µM, first compound 0.0316 µM
# [26] = second compound 3.16 µM, first compound 0.1 µM
# [27] = second compound 3.16 µM, first compound 0.316 µM
# [28] = second compound 3.16 µM, first compound 1 µM
# [29] = second compound 3.16 µM, first compound 3.16 µM
# [30] = second compound 3.16 µM, first compound 10 µM
# [31] = second compound 10 µM, first compound 0.0316 µM
# [32] = second compound 10 µM, first compound 0.1 µM
# [33] = second compound 10 µM, first compound 0.316 µM
# [34] = second compound 10 µM, first compound 1 µM
# [35] = second compound 10 µM, first compound 3.16 µM
# [36] = second compound 10 µM, first compound 10 µM
# 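Further: spheroids exposed to compounds for 7 days before readout.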
# 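Wherever viability, T/C is given: 100% = DMSO vehicle control viability.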
smiles,measurement,setting,value
COc1cc(C2c3cc4c(cc3C(OC3OC5COC(C)OC5C(O)C3O)C3COC(=O)C23)OCO4)cc(OC)c1O (stereo unspecified) + Nc1ccc(C#CCN(C(=O)Cc2ncc(C(F)(F)F)cc2C(F)(F)F)c2ccc(F)cc2)nn1,IC50,second compound 0.0316 µM,> 10 µM
same,IC50,second compound 0.1 µM,> 10 µM
same,IC50,second compound 0.316 µM,> 10 µM
same,IC50,second compound 1 µM,> 10 µM
same,IC50,second compound 3.16 µM,> 10 µM
same,IC50,second compound 10 µM,> 10 µM
same,"viability, T/C",[1],106%
same,"viability, T/C",[2],94.4%
same,"viability, T/C",[3],108%
same,"viability, T/C",[4],94.4%
same,"viability, T/C",[5],93.2%
same,"viability, T/C",[6],74.4%
same,"viability, T/C",[7],115%
same,"viability, T/C",[8],99.8%
same,"viability, T/C",[9],102%
same,"viability, T/C",[10],98.9%
same,"viability, T/C",[11],91%
same,"viability, T/C",[12],74.5%
same,"viability, T/C",[13],97.9%
same,"viability, T/C",[14],122%
same,"viability, T/C",[15],107%
same,"viability, T/C",[16],92.4%
same,"viability, T/C",[17],93.5%
same,"viability, T/C",[18],72.2%
same,"viability, T/C",[19],100%
same,"viability, T/C",[20],104%
same,"viability, T/C",[21],97.8%
same,"viability, T/C",[22],96.4%
same,"viability, T/C",[23],99.9%
same,"viability, T/C",[24],74.9%
same,"viability, T/C",[25],96.3%
same,"viability, T/C",[26],96.8%
same,"viability, T/C",[27],103%
same,"viability, T/C",[28],86.7%
same,"viability, T/C",[29],72.1%
same,"viability, T/C",[30],66.1%
same,"viability, T/C",[31],89.6%
same,"viability, T/C",[32],96.1%
same,"viability, T/C",[33],88.7%
same,"viability, T/C",[34],68.8%
same,"viability, T/C",[35],70.9%
same,"viability, T/C",[36],61.5%
COc1cccc2c1C(=O)c1c(O)c3c(c(O)c1C2=O)CC(O)(C(=O)CO)CC3OC1CC(N)C(O)C(C)O1 (stereo unspecified) + Nc1ccc(C#CCN(C(=O)Cc2ncc(C(F)(F)F)cc2C(F)(F)F)c2ccc(F)cc2)nn1,IC50,second compound 0.0316 µM,1.27 µM
same,IC50,second compound 0.1 µM,1.48 µM
same,IC50,second compound 0.316 µM,1.25 µM
same,IC50,second compound 1 µM,1.04 µM
same,IC50,second compound 3.16 µM,0.822 µM
same,IC50,second compound 10 µM,0.614 µM
same,"viability, T/C",[1],102%
same,"viability, T/C",[2],92.4%
same,"viability, T/C",[3],92.8%
same,"viability, T/C",[4],51.7%
same,"viability, T/C",[5],43.4%
same,"viability, T/C",[6],42.6%
same,"viability, T/C",[7],103%
same,"viability, T/C",[8],97.8%
same,"viability, T/C",[9],91.5%
same,"viability, T/C",[10],53.2%
same,"viability, T/C",[11],45.1%
same,"viability, T/C",[12],40.2%
same,"viability, T/C",[13],94.7%
same,"viability, T/C",[14],98%
same,"viability, T/C",[15],91.9%
same,"viability, T/C",[16],53%
same,"viability, T/C",[17],38%
same,"viability, T/C",[18],35.1%
same,"viability, T/C",[19],88.6%
same,"viability, T/C",[20],109%
same,"viability, T/C",[21],81.8%
same,"viability, T/C",[22],52%
same,"viability, T/C",[23],37.4%
same,"viability, T/C",[24],37.4%
same,"viability, T/C",[25],90.6%
same,"viability, T/C",[26],94.3%
same,"viability, T/C",[27],76.9%
same,"viability, T/C",[28],43.8%
same,"viability, T/C",[29],38.4%
same,"viability, T/C",[30],28.8%
same,"viability, T/C",[31],91.6%
same,"viability, T/C",[32],88.4%
same,"viability, T/C",[33],61.2%
same,"viability, T/C",[34],39.3%
same,"viability, T/C",[35],28.8%
same,"viability, T/C",[36],16.4%
O=c1[nH]cc(F)c(=O)[nH]1 + Nc1ccc(C#CCN(C(=O)Cc2ncc(C(F)(F)F)cc2C(F)(F)F)c2ccc(F)cc2)nn1,IC50,second compound 0.0316 µM,> 10 µM
same,IC50,second compound 0.1 µM,> 10 µM
same,IC50,second compound 0.316 µM,> 10 µM
same,IC50,second compound 1 µM,> 10 µM
same,IC50,second compound 3.16 µM,> 10 µM
same,IC50,second compound 10 µM,> 10 µM
same,"viability, T/C",[1],118%
same,"viability, T/C",[2],112%
same,"viability, T/C",[3],96.5%
same,"viability, T/C",[4],97.1%
same,"viability, T/C",[5],89.4%
same,"viability, T/C",[6],89.3%
same,"viability, T/C",[7],113%
same,"viability, T/C",[8],115%
same,"viability, T/C",[9],96%
same,"viability, T/C",[10],101%
same,"viability, T/C",[11],87%
same,"viability, T/C",[12],80.9%
same,"viability, T/C",[13],94.5%
same,"viability, T/C",[14],104%
same,"viability, T/C",[15],101%
same,"viability, T/C",[16],93%
same,"viability, T/C",[17],85.6%
same,"viability, T/C",[18],86.1%
same,"viability, T/C",[19],117%
same,"viability, T/C",[20],114%
same,"viability, T/C",[21],111%
same,"viability, T/C",[22],90.2%
same,"viability, T/C",[23],92.4%
same,"viability, T/C",[24],86%
same,"viability, T/C",[25],116%
same,"viability, T/C",[26],106%
same,"viability, T/C",[27],86.9%
same,"viability, T/C",[28],89%
same,"viability, T/C",[29],92.2%
same,"viability, T/C",[30],78.4%
same,"viability, T/C",[31],126%
same,"viability, T/C",[32],101%
same,"viability, T/C",[33],92.6%
same,"viability, T/C",[34],85%
same,"viability, T/C",[35],83.4%
same,"viability, T/C",[36],84.9%
